Laboratory results taken from a melting point compilation (Tetko et al.; mined from patent text by program, amines drawn as free bases though some values may be those of a salt).

Compound	melting point [°C]
COc1ccc(CC(=O)Nc2cccc(/C=C/c3nc(C4CCC4)cs3)c2)c(C(=O)O)c1	190 to 191
CCNC(=NC#N)NCCN(CC1CCc2ccccc2O1)C(=O)OC(C)(C)C (configuration not stated)	115
O=[N+]([O-])c1ccc2oc(-c3ccc(CN4CCOCC4)s3)nc2c1	149 to 151
O=c1[nH]c2cc(Cl)ccc2c(O)c1-c1cccc(Cl)c1	> 300
CC(=O)SCC(Cc1ccccc1)NC(=O)OC(C)(C)C (configuration not stated)	92 to 94
CCNc1nc(NCC)nc(-c2ccc(-c3ccccc3)cc2)n1	183 to 184
COC(=O)c1ccccc1S(=O)(=O)NC(=O)Nc1nc(OC)nc(C2CC2)n1	166 to 168
CCOc1ccc(-c2nn(C(C)c3oc4ccccc4c(=O)c3-c3cccc(F)c3)c3ncnc(N)c23)cc1F (configuration not stated)	216 to 218
COC(=O)/C=C/c1cc(C)cc(NC(C)=O)n1	139
C/C(=C\c1ccc(C(=O)N2CCOCC2)cc1)c1ccc2c(c1)C(C)(C)CCC2(C)C	143 to 144
CC(=O)OC(c1cscc1S(N)(=O)=O)C(C)F (configuration not stated)	92 to 94
O=C(NC1CCNC1=O)c1cccc(-c2cccc3oc(Cc4cccc(C(F)(F)F)c4)cc23)c1 (configuration not stated)	110 to 120
O=C(Nc1ccccc1)ONC1=Nc2ccc(Br)cc2C(c2ccccn2)=NC1	190 to 192
CCN1c2ncc(CCc3ccc(NS(C)(=O)=O)cc3)cc2C(=O)N(C)c2ccc(Cl)nc21	199 to 204
C=CCN1C(=O)N(Cc2c(C)c(CN3C(=O)N(CC=C)C(=O)C3(C)C)c(C)c(CN3C(=O)N(CC=C)C(=O)C3(C)C)c2C)C(C)(C)C1=O	150 to 155
CC(=O)NC1CCCCc2sccc21 (configuration not stated)	179 to 180
COc1cc(CCc2ccc(C)cc2)cc(OC)c1OC	51 to 52
Cc1c(C(=O)Nc2ccc(N3CCC(=O)CC3)c(C#N)c2)cnn1-c1ccc(Cl)cc1	238
Cc1cc(C#N)cc(C)c1Oc1nc(Nc2ccc(C#N)cc2)nc(C)c1Br	260 to 262
CCOC(=O)C(=CNc1ccc(OCC)c(C)n1)C(=O)OCC	132 to 138
C1=C(c2c[nH]c3ccccc23)CCN(CC2COc3ccc4c(c3O2)CCCO4)C1 (configuration not stated)	186 to 187
N#CN1CCC(c2nn(-c3ccc(F)cc3)c3ccccc23)CC1	108 to 110
Fc1ccccc1-c1ccc(Cl)nn1	95 to 96
COc1cc(-c2nc3ccccc3n2Cc2ccccc2Cl)cc(OC)c1OC	174
O=CC1Cc2cc(C(=O)c3cccs3)c(Cl)c(Cl)c2O1 (configuration not stated)	162 to 164

Compound	melting point [°C]
CC1(C)CCCC2(C)C1CCC(C)(O)C2CCO (configuration not stated)	130 to 132
CCOC(=O)c1cccc([N+](=O)[O-])c1NCc1ccc(-c2ccccc2C#N)cc1	119 to 120
CNc1nc2c(s1)C(=O)CCC2	180 to 182
Cc1noc(NC(=O)N2CCN(c3cc(-c4cccc(F)c4F)ncn3)CC2)c1C	210 to 211
CC1CNc2c(cccc2S(=O)(=O)N[C@@H](CCCNC(=N)N)C(=O)N2CC[C@@H](C)C[C@@H]2C(=O)O)C1 (some centres not stated)	188 to 191
CCOC(=O)C1=C(COCc2nnnn2CCN2CCN(C(=O)NC)CC2)NC(C)=C(C(=O)OC)C1c1cccc(Cl)c1Cl (configuration not stated)	95 to 96
CN(C)c1cccc2c(S(=O)(=O)Nc3ccc(I)nn3)cccc12	176 to 178
COc1ccc(Cn2c3c(c4cc(OC)c(OC)cc4c2=O)C(=O)c2cc4c(cc2-3)OCO4)cc1	360 to 364
Clc1cccc(N2CCN(c3nc4cccccc-4n3)CC2)c1	217 to 219
CC(C)(C)OC(=O)NNCCC12CC3CC(CC(C3)C1)C2	73.5 to 81
CCCCOC1OC(CO)C(O)(N(CC)C(=O)N(CCCl)N=O)C(O)C1O (configuration not stated)	75 to 77
CC1=NC(NC(=O)Nc2cccc(C)c2)C(=O)N(CC(=O)C2CCCCC2)c2c(C)cccc21 (configuration not stated)	179 to 181
O=C(O)c1cnc2oc(C(=O)O)cc2c1	> 315
O=C1CCN(Cc2ccc(O)cc2)CC1C(c1ccccc1)c1ccccc1 (configuration not stated)	133 to 134
CN(CC#Cc1ccccc1)[C@H]1CC[C@H](c2ccc3[nH]c(=O)oc3c2)CC1	249 to 252
COc1cc([N+](=O)[O-])c(N)cc1Cl	128 to 129
Cc1cc(=O)c(Oc2ccc(Cl)cc2)c(-c2ccc(S(N)(=O)=O)cc2)o1	221
CCOCc1cc(N2C(=O)C3=C(CCCC3)C2=O)c(F)cc1Br	104 to 106
COc1cc2c(cc1C(C)(C)C)CCC2Cc1c[nH]cn1 (configuration not stated)	174 to 184
O=C(CCNCc1cc(F)cc(F)c1)Nc1cccc2c1C(=O)c1c(NC(=O)CCNCc3cc(F)cc(F)c3)cccc1C2=O	190 to 191
O=C(O)COc1ccc(C(=CC(=O)NCc2cccnc2)c2ccccc2)cc1	187 to 189
O=C(O)[C@@H]1CC(=Cc2ccccc2)CN1C(=O)OCc1ccccc1	142 to 150
COc1cc2nc(N3CCN(C(=O)CCCO)CC3)nc(N)c2cc1OC	241 to 243
O=C1Nc2cc(Cl)ccc2Sc2ccccc21	163 to 165

Other lines, results leading:

melting point [°C]	Compound
191 to 193	C#CCCN1C(=O)c2cccc3cccc(c23)C1=O
212 to 215	CC(C)Sc1nc(C(F)(F)F)c(I)c(=O)[nH]1
153 to 154	Cn1c2c(c3cc(O)ccc31)CC(CO)C2 (configuration not stated)
196 to 197	NC(=S)Nc1cc(C(F)(F)F)ccc1N1CCOCC1
77 to 78	CCSc1nc2ccc(N)cc2s1
150 to 151	CC(C)(C(N)=O)c1ccc(OCc2ccccc2)cc1
164 to 168	CCOC(=O)c1cn(C2CC2)c2c(Br)c(F)c(F)cc2c1=O
157	O=C(O)CCC(C(=O)O)N1C(=O)c2ccccc2C1=S (configuration not stated)
142 to 144	CC(C)(COc1ccc(Cl)cc1)C(O)C(Oc1ccc(Cl)cc1)n1ccnc1 (configuration not stated)
136 to 139	COc1ccc(-c2nsc(SN)n2)cc1
67 to 68.5	CCOC(=O)C(CC(=O)c1ccc(Oc2ccc(Br)cc2)cc1)SC(C)=O (configuration not stated)
114	CS(=O)CCCn1c(=N)sc2cc(OC(F)(F)F)ccc21 (racemic)
90 to 92	CCCN1c2cscc2CN(C)c2ccccc21
167 to 168	O=C(O)Cc1nn(Cc2ccc(Br)cc2F)c2ccccc12
305	CCCCCC(=O)Nc1ccc(C(=O)NN=C2C(=O)Nc3ccc(I)cc32)cc1
80 to 82	O=[N+]([O-])c1cnccc1NCCCCO
198 to 200	CC(=O)NCc1nc2c(N)nc3cccnc3c2n1CC(C)(C)O
133 to 136	CCOC(=O)CC(=O)Nc1ccc(N)c([N+](=O)[O-])c1
155 to 157	CC(=O)c1cc2c(s1)CCC1CC(=O)N(c3ccc(Cl)cc3)N=C21 (configuration not stated)
207	COc1ccc2c(=O)ccn(CCN3CCC(NC(=O)OC(C)(C)C)CC3)c2c1
210 to 211	CCc1c2c(nn1CC)c(N)nc1cc(OC)ccc12
160	Cc1nc(C(F)(F)F)ccc1C(=O)C1=C(O)C2CC2C(C)(S(C)=O)C1=O (configuration not stated)
61	O=S(=O)(Cl)c1ccc(Oc2ccc(Cl)cc2)cc1
